Experimental data taken from patent US20150209327A1, “METHODS FOR THE TREATMENT OF OBESITY USING APREMILAST” (Celgene Corporation, priority 2014, published 2015).

How the values were obtained:
[1] = Apremilast Data Pool: weight change; assay type: in vivo, human
Text: Similar results of weight loss were reported for the Apremilast Data Pool. A weight decrease was reported during the Placebo-controlled Period (24 weeks) in 3 (0.2%) subjects who received placebo and 26 (0.9%) subjects who received apremilast, including 8 (0.8%) subject in the APR 20 BID group, and 18 (1.1%) subjects in the APR 30 BID group.
The end-of-period value is the last postbaseline value (only through the Placebo-controlled Period for placebo-treated subjects) including data up to 28 days after the last dose of investigational product but excluding the observational follow-up visit.
The end-of-period value is the last postbaseline value (while subjects were receiving apremilast), including data up to 28 days after the last dose of apremilast but excluding the observational follow-up visit.

PDE7 = PDE7 (Homo sapiens, UniProt Q13946); experiment: PDE7 enzyme assay; assay type: biochemical
Method: PDE1, 2, 3 and 5 enzyme assays were prepared as described by Hidaka and Asano. Biochem. Biophys. Acta., 1976, 429:485; see also Nicholsen et al., Trends Pharmaco. Sci., 1991, 12:19. The PDE6 enzyme assay was prepared according to Baehr et al., J. Biol. Chem., 1979, 254:11669 and Gillespie et al., Mol. Pharm., 1989, 36: 773. The PDE7 enzyme assay was prepared according to Bloom and Beavo. Proc. Natl. Acad. Sci. USA, 1996, 93:14188-92.

[2] = 20 mg BID, Apremilast-exposure Period
[3] = 20 mg BID, Apremilast-exposure Period, Apremilast Subjects as Treated, m = 1373
[4] = 20 mg BID, Placebo-controlled Period
[5] = 20 mg BID, Placebo-controlled Period, Subjects as Initially Treated at Week 0, m = 900
[6] = 30 mg BID, Apremilast-exposure Period
[7] = 30 mg BID, Apremilast-exposure Period, Apremilast Subjects as Treated, m = 2268
[8] = 30 mg BID, Placebo-controlled Period
[9] = 30 mg BID, Placebo-controlled Period, Subjects as Initially Treated at Week 0, m = 1541
[10] = APR Total, Apremilast-exposure Period, Apremilast Subjects as Treated, m = 3606
[11] = APR Total, Placebo-controlled Period, Subjects as Initially Treated at Week 0, m = 2591

PDE7, sequence (Q13946 whole entry): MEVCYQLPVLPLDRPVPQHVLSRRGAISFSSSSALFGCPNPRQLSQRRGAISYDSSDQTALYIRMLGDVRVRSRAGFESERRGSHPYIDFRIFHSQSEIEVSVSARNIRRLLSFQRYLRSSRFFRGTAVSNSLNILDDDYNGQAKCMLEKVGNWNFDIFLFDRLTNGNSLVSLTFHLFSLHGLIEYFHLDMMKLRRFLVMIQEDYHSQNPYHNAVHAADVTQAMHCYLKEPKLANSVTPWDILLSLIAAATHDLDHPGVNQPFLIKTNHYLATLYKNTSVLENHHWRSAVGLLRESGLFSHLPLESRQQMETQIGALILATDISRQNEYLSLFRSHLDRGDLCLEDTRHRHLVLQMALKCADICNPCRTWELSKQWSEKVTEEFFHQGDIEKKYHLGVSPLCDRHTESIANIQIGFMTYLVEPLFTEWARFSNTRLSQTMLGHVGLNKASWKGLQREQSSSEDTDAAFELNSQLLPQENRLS

## CCOc1cc([C@@H](CS(C)(=O)=O)N2C(=O)c3cccc(NC(C)=O)c3C2=O)ccc1OC [Apremilast, (+)-2-[1-(3-ethoxy-4-methoxyphenyl)-2-methylsulfonylethyl]-4-acetylaminoisoindoline-1,3-dione]
[1]; [2]
  observed weight loss of greater than 10%, % subjects: 4.0%
  weight decrease reported, subjects n (%): 17 (1.2%) n (%)
[1]; [3]
  Weight % Change Category 0%, n (%): 125 (9.1) n (%)
  Weight % Change Category <−20%, n (%): 2 (0.1) n (%)
  Weight % Change Category >0% to ≦5%, n (%): 410 (29.9) n (%)
  Weight % Change Category >5% to ≦10%, n (%): 56 (4.1) n (%)
  Weight % Change Category >10% to ≦20%, n (%): 18 (1.3) n (%)
  Weight % Change Category >20%, n (%): 0 n (%)
  Weight % Change Category ≧−5% to <0%, n (%): 565 (41.2) n (%)
  Weight % Change Category ≧−10% to <−5%, n (%): 144 (10.5) n (%)
  Weight % Change Category ≧−20% to <−10%, n (%): 53 (3.9) n (%)
[1]; [4]
  observed weight loss of greater than 10%, subjects n (%): 17 (1.9%) n (%)
  percentage of subjects with weight change of >−10% to <−5%: 9.3%
[1]; 20 mg BID, Placebo-controlled Period (24 weeks)
  weight decrease reported, subjects n (%): 8 (0.8%) n (%)
[1]; [5]
  Weight % Change Category 0%, n (%): 101 (11.2) n (%)
  Weight % Change Category <−20%, n (%): 1 (0.1) n (%)
  Weight % Change Category >0% to ≦5%, n (%): 277 (30.8) n (%)
  Weight % Change Category >5% to ≦10%, n (%): 262 (2.9) n (%)
  Weight % Change Category >10% to ≦20%, n (%): 2 (0.2) n (%)
  Weight % Change Category >20%, n (%): 0 n (%)
  Weight % Change Category ≧−5% to <0%, n (%): 393 (43.7) n (%)
  Weight % Change Category ≧−10% to <−5%, n (%): 84 (9.3) n (%)
  Weight % Change Category ≧−20% to <−10%, n (%): 16 (1.8) n (%)
[1]; 20 mg BID, end of the Apremilast-exposure Period
  mean weight change from baseline: -1.09 kg
[1]; 20 mg BID, end of the Placebo-controlled Period, Subjects as Initially Treated at Week 0
  mean weight change from baseline: -1.01 kg
[1]; [6]
  observed weight loss of greater than 10%, % subjects: 4.9%
  weight decrease reported, subjects n (%): 36 (1.5%) n (%)
[1]; [7]
  Weight % Change Category 0%, n (%): 162 (7.1) n (%)
  Weight % Change Category <−20%, n (%): 11 (0.5) n (%)
  Weight % Change Category >0% to ≦5%, n (%): 610 (26.9) n (%)
  Weight % Change Category >5% to ≦10%, n (%): 116 (5.1) n (%)
  Weight % Change Category >10% to ≦20%, n (%): 29 (1.3) n (%)
  Weight % Change Category >20%, n (%): 5 (0.2) n (%)
  Weight % Change Category ≧−5% to <0%, n (%): 923 (40.7) n (%)
  Weight % Change Category ≧−10% to <−5%, n (%): 311 (13.7) n (%)
  Weight % Change Category ≧−20% to <−10%, n (%): 101 (4.5) n (%)
[1]; [8]
  observed weight loss of greater than 10%, subjects n (%): 23 (1.5%) n (%)
  percentage of subjects with weight change of >−10% to <−5%: 11.3%
[1]; 30 mg BID, Placebo-controlled Period (24 weeks)
  weight decrease reported, subjects n (%): 18 (1.1%) n (%)
[1]; [9]
  Weight % Change Category 0%, n (%): 159 (10.3) n (%)
  Weight % Change Category <−20%, n (%): 1 (0.1) n (%)
  Weight % Change Category >0% to ≦5%, n (%): 410 (26.6) n (%)
  Weight % Change Category >5% to ≦10%, n (%): 37 (2.4) n (%)
  Weight % Change Category >10% to ≦20%, n (%): 8 (0.5) n (%)
  Weight % Change Category >20%, n (%): 1 (0.1) n (%)
  Weight % Change Category ≧−5% to <0%, n (%): 729 (47.3) n (%)
  Weight % Change Category ≧−10% to <−5%, n (%): 174 (11.3) n (%)
  Weight % Change Category ≧−20% to <−10%, n (%): 22 (1.4) n (%)
[1]; 30 mg BID, end of the Apremilast-exposure Period
  mean weight change from baseline: -1.41 kg
[1]; 30 mg BID, end of the Placebo-controlled Period, Subjects as Initially Treated at Week 0
  mean weight change from baseline: -1.21 kg
[1]; [10]
  Weight % Change Category 0%, n (%): 325 (8.3) n (%)
  Weight % Change Category <−20%, n (%): 14 (0.4) n (%)
  Weight % Change Category >0% to ≦5%, n (%): 1109 (28.4) n (%)
  Weight % Change Category >5% to ≦10%, n (%): 179 (4.6) n (%)
  Weight % Change Category >10% to ≦20%, n (%): 48 (1.2) n (%)
  Weight % Change Category >20%, n (%): 6 (0.2) n (%)
  Weight % Change Category ≧−5% to <0%, n (%): 1602 (41.0) n (%)
  Weight % Change Category ≧−10% to <−5%, n (%): 466 (11.9) n (%)
  Weight % Change Category ≧−20% to <−10%, n (%): 157 (4.0) n (%)
[1]; [11]
  Weight % Change Category 0%, n (%): 280 (10.8) n (%)
  Weight % Change Category <−20%, n (%): 3 (0.1) n (%)
  Weight % Change Category >0% to ≦5%, n (%): 741 (28.6) n (%)
  Weight % Change Category >5% to ≦10%, n (%): 66 (2.5) n (%)
  Weight % Change Category >10% to ≦20%, n (%): 12 (0.5) n (%)
  Weight % Change Category >20%, n (%): 1 (<0.1) n (%)
  Weight % Change Category ≧−5% to <0%, n (%): 1187 (45.8) n (%)
  Weight % Change Category ≧−10% to <−5%, n (%): 263 (10.2) n (%)
  Weight % Change Category ≧−20% to <−10%, n (%): 38 (1.5) n (%)
[1]; Placebo-controlled Period and Apremilast-exposure Period
  body weight of the majority of subjects: maintained their body weight within 0% and 5% of baseline
[1]; all subjects who received apremilast, Placebo-controlled Period (24 weeks)
  weight decrease reported, subjects n (%): 26 (0.9%) n (%)
PDE7
  IC50: 20.5 µM
